Data as given in PMC6270983, “Gastroprotective Mechanisms of Action of Semisynthetic Carnosic Acid Derivatives in Human Cells” (Molecules, 2014).

Tests used:
[1] = test system: human erythrocyte membranes; assay: Inhibition of lipoperoxidation in erythrocyte membranes; format: biochemical
Description: The inhibition of lipid peroxidation was determined using human erythrocyte membranes. The products were tested at 500 µg/mL.

AGS cells [2] = assay: Sodium taurocholate (NaT)-induced damage to AGS cells, viability by neutral red uptake; details: 60 min pre-treatment, then 10 mM NaT 30 min
Description: The model of AGS cells damaged by sodium taurocholate (NaT) was used to determine the gastroprotective effect of the compounds against the bile-induced injury on the gastric mucosa [10].
The effect of sodium taurocholate (NaT) on cell viability was determined according to Romano et al. [10]. […] Then, 10 mM NaT was added to all wells for 30 min. Un-treated cells were used as controls. Sucralfate (4 mg/mL) was used as reference compound. After incubation, the neutral red uptake (NRU, 0.05 mg/mL) assay was carried out to determine cell viability [4, 33].

AGS cells [3] = assay: Cellular reduced glutathione (GSH) content in AGS cells co-incubated with 4% ethanol; format: cell-based, human; details: 12 h; for percent increase of GSH content compared with untreated controls: AGS cells
MRC-5 fibroblasts = assay: Proliferation assay of MRC-5 fibroblasts, neutral red uptake; format: cell-based, human; details: 4 days
Description: Human lung fibroblasts MRC-5 (ATCC CCL-171) were grown as monolayers in minimum essential Eagle medium (MEM), with Earle’s salts, 2 mM L-glutamine and 2.2 g/L sodium bicarbonate, supplemented with 10% heat-inactivated fetal bovine serum (FBS), 100 IU/mL penicillin and 100 µg/mL streptomycin in a humidified incubator with 5% CO2 in air at 37 °C. For the subsequent experiments, cells were plated at a density of 2.5 × 10^4 cells/mL in 96-well plates.
Untreated cells were used as controls. Cell viability was determined at the end of the incubation by means of the NRU assay. The neutral red concentration was 0.05 mg/mL [4, 33].

AGS cells [4] = assay: Prostaglandin E2 (PGE2) content of AGS cells, enzyme immunoassay; format: cell-based, human

CC(C)c1cc2c(c(O)c1O)[C@@]1(C(=O)O)CCCC(C)(C)[C@@H]1CC2 [CA, Carnosic acid]
Inhibition of the lipoperoxidation, IC50 [1]: IC50 2.4 ± 0.18 µg/mL | percent cytoprotective effect compared to NaT control (AGS cells [2]; 6 µM): 23% | percent cytoprotective effect compared to NaT control (AGS cells [2]; 12 µM): 22% | percent increase of GSH content compared with untreated controls (AGS cells [3]; 4.5 µM): 19%

O.Oc1cc(O)c2c(c1)O[C@H](c1ccc(O)c(O)c1)[C@@H](O)C2 [Catechin, reference compound]
Inhibition of the lipoperoxidation, IC50 [1]: IC50 75.4 ± 6.0 µg/mL

COC(=O)[C@]12CCCC(C)(C)C1CCc1cc(C(C)C)c(O)c(O)c12 (stereo partly shown) [Compound 1]
Inhibition of the lipoperoxidation, IC50 [1]: IC50 34.4 ± 4.1 µg/mL | percent cytoprotective effect compared to NaT control (AGS cells [2]; 3 µM): 13%

COC(=O)[C@]12CCCC(C)(C)C1CCc1cc(C(C)C)c(OC)c(OC)c12 (stereo partly shown) [Compound 2]
Inhibition of the lipoperoxidation, percent effect at 500 µg/mL [1]: 53%

CC(=O)Oc1c(C(C)C)cc2c(c1OC(C)=O)[C@@]1(C(=O)O)CCCC(C)(C)C1CC2 (stereo partly shown) [Compound 3]
Inhibition of the lipoperoxidation, percent effect at 500 µg/mL [1]: 11% | percent cytoprotective effect compared to NaT control (AGS cells [2]; 10.5 µM): 13% | percent cytoprotective effect compared to NaT control (AGS cells [2]; 21 µM): 15% | percent cytoprotective effect compared to NaT control (AGS cells [2]; 42 µM): 13%

COC(=O)[C@]12CCCC(C)(C)C1CCc1cc(C(C)C)c(OC(=O)CCl)c(OC(=O)CCl)c12 (stereo partly shown) [Compound 5]
Inhibition of the lipoperoxidation, IC50 [1]: IC50 27.6 ± 3.0 µg/mL | percent cytoprotective effect compared to NaT control (AGS cells [2]; 1.1 µM): 17% | percent cytoprotective effect compared to NaT control (AGS cells [2]; 2.3 µM): 15% | percent cytoprotective effect compared to NaT control (AGS cells [2]; 4.5 µM): 8%

CCC(=O)Oc1c(C(C)C)cc2c(c1O)[C@@]1(C(=O)OC)CCCC(C)(C)C1CC2 (stereo partly shown) [Compound 6]
Inhibition of the lipoperoxidation, percent effect at 500 µg/mL [1]: 42%

CCCC(=O)Oc1c(C(C)C)cc2c(c1OC(=O)CCC)[C@@]1(C(=O)OC)CCCC(C)(C)C1CC2 (stereo partly shown) [Compound 7]
Inhibition of the lipoperoxidation, percent effect at 500 µg/mL [1]: 34% | stimulation of fibroblast proliferation compared to untreated controls (MRC-5 fibroblasts; 16 µM): 8%

COC(=O)[C@]12CCCC(C)(C)C1CCc1cc(C(C)C)c(OC(=O)C(C)C)c(O)c12 (stereo partly shown) [Compound 8]
Inhibition of the lipoperoxidation, IC50 [1]: IC50 13.6 ± 1.48 µg/mL

COC(=O)[C@]12CCCC(C)(C)C1CCc1cc(C(C)C)c(OC(=O)c3ccccc3)c(OC(=O)c3ccccc3)c12 (stereo partly shown) [Compound 9]
Inhibition of the lipoperoxidation, IC50 [1]: IC50 147.2 ± 16.6 µg/mL

COC(=O)[C@]12CCCC(C)(C)C1CCc1cc(C(C)C)c(OC(=O)c3cccnc3)c(OC(=O)c3cccnc3)c12 (stereo partly shown) [Compound 10, 11,12-O-dinicotinylmethylcarnosate]
Inhibition of the lipoperoxidation, percent effect at 500 µg/mL [1]: 22% | percent increase of GSH content compared with untreated controls (AGS cells [3]; 1.4 µM): 14%

COC(=O)[C@]12CCCC(C)(C)C1CCc1cc(C(C)C)c(OC(=O)Cc3ccccc3)c(OC(=O)Cc3ccccc3)c12 (stereo partly shown) [Compound 11]
Inhibition of the lipoperoxidation, IC50 [1]: IC50 140.4 ± 12.6 µg/mL | percent cytoprotective effect compared to NaT control (AGS cells [2]; 62.5 µM): 12%

COC(=O)[C@]12CCCC(C)(C)C1CCc1cc(C(C)C)c(OC(=O)Cc3c[nH]c4ccccc34)c(OC(=O)Cc3c[nH]c4ccccc34)c12 (stereo partly shown) [Compound 12]
Inhibition of the lipoperoxidation, percent effect at 500 µg/mL [1]: 38%

COC(=O)[C@]12CCCC(C)(C)C1CCc1cc(C(C)C)c(OC(=O)CCCc3c[nH]c4ccccc34)c(O)c12 (stereo partly shown) [Compound 13, 12-O-indolebutyrylmethylcarnosate]
Inhibition of the lipoperoxidation, percent effect at 500 µg/mL [1]: 49% | percent cytoprotective effect compared to NaT control (AGS cells [2]; 2.5 µM): 12% | percent cytoprotective effect compared to NaT control (AGS cells [2]; 5 µM): 8% | percent increase of GSH content compared with untreated controls (AGS cells [3]; 2.0 µM): 11% | increase of PGE2 content compared to controls (AGS cells [4]; 20 µM, AGS cells): 2.7 fold

COc1c(C(C)C)cc2c(c1O)[C@@]1(C(=O)O)CCCC(C)(C)C1CC2 (stereo partly shown) [Compound 14, 12-O-methylcarnosic acid]
Inhibition of the lipoperoxidation, IC50 [1]: IC50 186.3 ± 16.9 µg/mL | percent cytoprotective effect compared to NaT control (AGS cells [2]; 2.8 µM): 12% | percent cytoprotective effect compared to NaT control (AGS cells [2]; 5.6 µM): 5% | percent increase of GSH content compared with untreated controls (AGS cells [3]; 2.3 µM): 8%

COC(=O)[C@]12CCCC(C)(C)C1CCc1cc(C(C)C)c(OC)c(O)c12 (stereo partly shown) [Compound 15, 12-O-metylmethylcarnosate]
Inhibition of the lipoperoxidation, IC50 [1]: IC50 165.0 ± 14.9 µg/mL | percent increase of GSH content compared with untreated controls (AGS cells [3]; 4.5 µM): 11%

CCCOc1c(OC)c(C(C)C)cc2c1[C@@]1(C(=O)OC)CCCC(C)(C)C1CC2 (stereo partly shown) [Compound 16]
Inhibition of the lipoperoxidation, percent effect at 500 µg/mL [1]: 46% | growth stimulation compared to untreated controls (MRC-5 fibroblasts; 12 µM): 8% | growth stimulation compared to untreated controls (MRC-5 fibroblasts; 24 µM): 18%

COC(=O)[C@]12CCCC(C)(C)C1CCc1cc(C(C)C)c(OC)c(OC(C)=O)c12 (stereo partly shown) [Compound 17]
stimulation of fibroblast proliferation compared to untreated controls (MRC-5 fibroblasts; 23 µM): 7%

CCCOC(=O)[C@]12CCCC(C)(C)C1CCc1cc(C(C)C)c(OC)c(OCCC)c12 (stereo partly shown) [Compound 18]
stimulation of fibroblast proliferation compared to untreated controls (MRC-5 fibroblasts; 32 µM): 16% | stimulation of fibroblast proliferation compared to untreated controls (MRC-5 fibroblasts; 63 µM): 22%

COc1ccc2c(c1)c(CC(=O)O)c(C)n2C(=O)c1ccc(Cl)cc1 [Indomethacin, reference compound]
PGE2 (AGS cells [4]; 100 µM, 1 h, control 24.9 ± 2.1): 8.5 ± 1.3 pg/mL

CC(=O)N[C@@H](CS)C(=O)O [NAC, N-acetyl-L-cysteine, reference compound]
GSH (nmol/10^6 cells) (AGS cells [3]; 750 µM, control 3.6 ± 0.2): 4.0 ± 0.2 nmol/10^6 cells | percent increase of GSH content compared with untreated controls (AGS cells [3]; 750 µM): 11%
